Reference: PMC9024977, “In Vitro and In Silico Studies of Human Tyrosyl-DNA Phosphodiesterase 1 (Tdp1) Inhibition by Stereoisomeric Forms of Lipophilic Nucleosides: The Role of Carbohydrate Stereochemistry in Ligand-Enzyme Interactions” (Molecules, 2022)

What was measured:
Tdp1 [1] = target: T1, Tdp1 (Homo sapiens, UniProt Q9NUW8); assay: Real-time detection of Tdp1 activity (oligonucleotide biosensor, FAM/BHQ1); format: biochemical; parameters: key to Eut/Dis: The stereoisomer with the greater inhibitory activity is termed the eutomer (Eut); that with the lower activity, the distomer (Dis); details: for IC50: 1.5 nM Tdp1, 50 nM biosensor, 26 °C, three independent experiments; for ER (eudismic ratio): IC50 (Eutomer)/IC50 (Distomer); for ER (eudismic ratio) / EI (eudismic index): per stereoisomer pair; for Eut/Dis: eutomer or distomer within the stereoisomer pair; for EI (eudismic index): −logER
Description: The measurement of Tdp1 inhibition was performed using a real-time oligonucleotide biosensor based on the capability of Tdp1 to remove fluorophore quenchers from the 3′-end of DNA [31]. The single-stranded Tdp1 substrate was a 16-mer oligonucleotide containing a 5′-FAM (6-carboxyfluorescein) fluorophore donor and a 3′-BHQ1 quencher (black hole quencher 1). When a quencher is removed by Tdp1, FAM fluorescence flares up and can be detected by a fluorimeter. In the presence of an inhibitor, fluorescence intensity decreases. The obtained Tdp1 activity versus inhibitor concentration curves were used to calculate IC50 values. We also studied other structurally related compounds, such as optically active benzoylated arabinofuranose and ribofuranose to ascertain the influence of a heterocyclic base on biological activity (Table 1).
Real-time detection of Tdp1 activity was reported in our previous work. This approach involves measuring the fluorescence intensity during the reaction of quencher removal from a fluorophore-quencher coupled to a DNA-oligonucleotide catalyzed by Tdp1 in the presence of inhibitor (the control samples contained 1% DMSO). Reaction mixtures ([…]) contained Tdp1 buffer (50mM Tris-HCl, pH 8.0, 50mM NaCl, 7mM β-mercaptoethanol), 50 nM biosensor, testable inhibitor, and purified Tdp1 (1.5 nM). The biosensor was a single-stranded oligonucleotide (5′-[FAM] AAC GTC AGGGTC TTC C [BHQ]-3′) containing a fluorophore at the 5′-end (5,6-FAM) and black hole quencher 1 (BHQ) at the 3′-end that was synthesized in the Laboratory of nucleic acid chemistry at the Institute of Chemical Biology and Fundamental Medicine, Novosibirsk, Russia. The reactions were incubated at a constant temperature of 26 °C in a POLARstar OPTIMA fluorimeter (BMG LABTECH, GmbH, Soest, Germany) set to measure fluorescence every 55 s (Ex485/Em520 nm) during the linear phase (from 0 to 8 min). The values for half maximal inhibitory concentration (IC50) were determined using a six-point concentration response curve in three independent experiments and calculated using MARS Data Analysis 2.0 (BMG LABTECH, Soest, Germany).

recombinant human Tdp1 = assay: Steady-state kinetic analysis of Tdp1 enzymatic reaction; format: biochemical; details: from dependence of Vmax and KM on inhibitor concentration
Description: To confirm the interaction model obtained by molecular docking, the type of inhibition by compounds 3D, 3L, 7R, and 7S was determined by a steady-state kinetic assay. During the experiment, dependence curves of the enzymatic reaction rate (V) on substrate concentration (S) in the presence of different concentrations of the inhibitors were obtained (Figures S36–S39 in Supplementary Materials). The apparent Michaelis constant (KM) and the maximum reaction rate (Vmax) were calculated according to the Michaelis–Menten equation. Conclusions about the type of inhibition were made from the characteristics of the dependence of Vmax and KM on the concentration of the inhibitor.
To determine the apparent maximum rate of enzymatic reaction (Vmax), Michaelis constant (KM), and possible inhibition mechanism, steady-state kinetic experiments were carried out at five fixed concentrations for the substrate with various inhibitor concentrations. The standard reaction mixtures (200 μL) contained 50 nM, 100 nM, 200 nM, 500 nM, or 1000 nM substrate, testable inhibitor, 1.5 nM recombinant human Tdp1, and reaction buffer components (50 mM Tris-HCl, pH 8.0, 50 mM NaCl, 7 mM β-mercaptoethanol). After the addition of the enzyme, the reaction mixtures were incubated at a constant temperature of 26 °C and measured in a POLARstar OPTIMA fluorimeter (BMG LABTECH, GmbH) set to measure fluorescence every 55 s (Ex485/Em520 nm) during the linear phase (0 to 8 min). The initial data (kinetic curves) were obtained in three independent experiments and statistically processed with OriginPro 8.6.0 software.

Tdp1 [2] = target: T1, Tdp1; assay: Fluorescence anisotropy assay; format: binding; details: FAM-labeled DNA with Tdp1, increasing inhibitor concentration
Description: To clarify the mechanism of action of this compound, the change in the fluorescence anisotropy during the Tdp1 catalytic reaction was studied. This method is based on the ability of fluorescent molecules to be excited by plane-polarized light when their dipole moment is parallel to the plane of polarization. If such a molecule is unable to rotate in space, then the emitted light will be polarized following excitation. Conversely, if the molecule can rotate, then the emitted light is “depolarized”. The minimum anisotropy value corresponds to FAM-labeled DNA (Figure S40, gray graph). When Tdp1 was added, the anisotropy increased due to the binding of the DNA by the enzyme, which prevents its free rotation (Figure S40, red graph).
This means that the inhibitor can bind to the active site of Tdp1 instead of the DNA substrate, thereby reducing the activity of the enzyme by competitive inhibition. This is consistent with the data obtained in the kinetic studies. […] Thus, a competitive component is present when Tdp1 is inhibited by compound 7R; however, this process is more complicated and requires further study with other methods.

T1 sequence (Q9NUW8 whole entry): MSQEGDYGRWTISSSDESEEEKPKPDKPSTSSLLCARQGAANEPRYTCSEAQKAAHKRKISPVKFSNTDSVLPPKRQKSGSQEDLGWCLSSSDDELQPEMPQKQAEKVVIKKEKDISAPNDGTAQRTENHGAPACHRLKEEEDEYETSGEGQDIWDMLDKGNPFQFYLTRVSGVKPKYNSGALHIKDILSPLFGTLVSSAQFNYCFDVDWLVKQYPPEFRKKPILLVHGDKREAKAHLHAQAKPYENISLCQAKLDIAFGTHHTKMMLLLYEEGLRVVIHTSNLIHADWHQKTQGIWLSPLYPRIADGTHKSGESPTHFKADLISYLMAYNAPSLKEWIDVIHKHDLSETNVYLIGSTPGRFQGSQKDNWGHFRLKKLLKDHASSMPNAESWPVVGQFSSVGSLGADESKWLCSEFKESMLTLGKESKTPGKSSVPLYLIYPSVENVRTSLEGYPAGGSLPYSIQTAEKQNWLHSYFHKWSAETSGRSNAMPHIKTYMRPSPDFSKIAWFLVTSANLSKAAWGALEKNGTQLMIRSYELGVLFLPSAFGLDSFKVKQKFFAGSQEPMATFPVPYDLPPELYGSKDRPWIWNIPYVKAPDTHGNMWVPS

SMILES	IC50 (Tdp1 [1]) [µM]	ER (eudismic ratio) (Tdp1 [1])	Eut/Dis (Tdp1 [1])	EI (eudismic index) (Tdp1 [1])	type of inhibition (recombinant human Tdp1)	change in fluorescence anisotropy (Tdp1 [2])
C[C@@H](OC(=O)c1ccccc1)[C@H]1O[C@@H](n2c(=O)cc[nH]c2=O)[C@H](OC(=O)c2ccccc2)[C@@H]1OC(=O)c1ccccc1 [Compound 5R, 3-[5(R)-C-methyl-2,3,5-O-tribenzoyl-β-D-ribofuranosyl]uracil]	3.1 ± 0.2	0.871	Dis	0.06		
O=C(OC[C@@H]1O[C@H](n2ccc(=O)[nH]c2=O)[C@@H](OC(=O)c2ccccc2)[C@H]1OC(=O)c1ccccc1)c1ccccc1 [Compound 3L, 2′,3′,5′-tri-O-benzoyl-L-uridine]	5.1 ± 0.1	0.745	Dis	0.128	uncompetitive	
O=C(OC[C@H]1O[C@@H](n2ccc(=O)[nH]c2=O)[C@H](OC(=O)c2ccccc2)[C@@H]1OC(=O)c1ccccc1)c1ccccc1 [Compound 3D, 2′,3′,5′-tri-O-benzoyl-D-uridine]	3.8 ± 0.4	0.745	Eut	0.128	uncompetitive	
C[C@H](OC(=O)c1ccccc1)[C@H]1O[C@@H](n2c(=O)cc[nH]c2=O)[C@H](OC(=O)c2ccccc2)[C@@H]1OC(=O)c1ccccc1 [Compound 5S, 3-[5(S)-C-methyl-2,3,5-tri-O-benzoyl-β-D-ribofuranosyl]uracil]	2.7 ± 0.2	0.871	Eut	0.06		
C[C@@H](OC(=O)c1ccccc1)[C@H]1O[C@@H](n2ccc(N)nc2=O)[C@H](OC(=O)c2ccccc2)[C@@H]1OC(=O)c1ccccc1 [Compound 6R, 1-[5(R)-C-methyl-2,3,5-tri-O-benzoyl-β-D-ribofuranosyl]cytosine]	5.8 ± 0.5	0.896	Dis	0.048		
C[C@H](OC(=O)c1ccccc1)[C@H]1O[C@@H](n2cnc3c(NC(=O)c4ccccc4)ncnc32)[C@H](OC(=O)c2ccccc2)[C@@H]1OC(=O)c1ccccc1 [Compound 7S, 5′(S)-C-methyl-2′,3′,5′-tri-O-benzoyl-N^6-benzoyladenosine]	4.6 ± 0.9	0.956	Dis	0.0193	competitive	decreased with an increasing concentration of the inhibitor
Cc1cn([C@@H]2O[C@H](COC(=O)c3ccccc3)[C@@H](OC(=O)c3ccccc3)[C@H]2OC(=O)c2ccccc2)c(=O)[nH]c1=O [Compound 4D, 1-(2,3,5-Tri-O-benzoyl-β-D-ribofuranosyl)thymine]		0.108	Eut	0.967		
O=c1ccn([C@@H]2O[C@H](CO)[C@@H](O)[C@H]2O)c(=O)[nH]1 [Compound 8D]	> 50					
O=c1ccn([C@H]2O[C@@H](CO)[C@H](O)[C@@H]2O)c(=O)[nH]1 [Compound 8L]	> 50					
C[C@@H](OC(=O)c1ccccc1)[C@H]1O[C@@H](n2cnc3c(NC(=O)c4ccccc4)ncnc32)[C@H](OC(=O)c2ccccc2)[C@@H]1OC(=O)c1ccccc1 [Compound 7R, 5′(R)-C-methyl-2′,3′,5′-tri-O-benzoyl-N^6-benzoyladenosine]	4.4 ± 0.8	0.956	Eut	0.0193	uncompetitive at low inhibitor concentrations and mixed at high	
CC(=O)O[C@@H]1O[C@H](COC(=O)c2ccccc2)[C@@H](OC(=O)c2ccccc2)[C@H]1OC(=O)c1ccccc1 [Compound 2D, 1-O-Acetyl-2,3,5-tri-O-benzoyl-β-D-ribofuranose]		0.808	Eut	0.09		
CO[C@H]1O[C@H](COC(=O)c2ccccc2)[C@@H](OC(=O)c2ccccc2)[C@@H]1OC(=O)c1ccccc1 [Compound 1D, 1-O-methyl-2,3,5-tri-O-benzoyl-α-D-arabinofuranose]	2.3 ± 0.6	0.343	Eut	0.465		
CO[C@@H]1O[C@@H](COC(=O)c2ccccc2)[C@H](OC(=O)c2ccccc2)[C@H]1OC(=O)c1ccccc1 [Compound 1L, 1-O-methyl-2,3,5-tri-O-benzoyl-α-L-arabinofuranose]	6.7 ± 1.9	0.343	Dis	0.465		
Cc1cn([C@H]2O[C@@H](COC(=O)c3ccccc3)[C@H](OC(=O)c3ccccc3)[C@@H]2OC(=O)c2ccccc2)c(=O)[nH]c1=O [Compound 4L, 2′,3′,5′-tri-O-benzoyl-L-ribothymidine]	25 ± 1	0.108	Dis	0.967		
C[C@H](OC(=O)c1ccccc1)[C@H]1O[C@@H](n2ccc(N)nc2=O)[C@H](OC(=O)c2ccccc2)[C@@H]1OC(=O)c1ccccc1 [Compound 6S, 1-[5(S)-C-methyl-2,3,5-tri-O-benzoyl-β-D-ribofuranosyl]cytosine]	5.2 ± 0.8	0.896	Eut	0.048		
CC(=O)O[C@H]1O[C@@H](COC(=O)c2ccccc2)[C@H](OC(=O)c2ccccc2)[C@@H]1OC(=O)c1ccccc1 [Compound 2L]	5.2 ± 0.2	0.808	Dis	0.09		
